Source: patent US10570108B2, “Substituted benzofuran compounds for the treatment of hepatitis C” (BRISTOL-MYERS SQUIBB COMPANY, priority 2015, dated 2020)

tested on: HCV replicon; assay: HCV replicon luciferase assay; format: cell-based; settings: Hepatitis C virus, Huh-7, 72 h
Protocol: Cell lines. The cell lines used to evaluate compounds consist of a human hepatocyte derived cell line (Huh-7) that constitutively expresses a genotype 1b (Con-1) HCV replicon or a genotype 1b (Con-1) HCV replicon with an asparagine replacing the cysteine at amino acid 316, or a genotype 2a (JFH-1) replicon, containing a Renilla luciferase reporter gene. These cells were maintained in Dulbecco's modified Eagle medium (DMEM) containing 10% FBS, 100 U/mL penicillin/streptomycin and 1.0 mg/mL G418.
HCV replicon luciferase assay. To evaluate compound efficacy, titrated compounds were transferred to sterile 384-well tissue culture treated plates, and the plates were seeded with HCV replicon cells (50 μL at a density of 2.4×10^3 cells/well) in DMEM containing 4% FBS (final DMSO concentration at 0.5%). After 3 days incubation at 37° C., cells were analyzed for Renilla Luciferase activity using the EnduRen substrate (Promega cat #E6485) according to the manufacturer's directions. Briefly, the EnduRen substrate was diluted in DMEM and then added to the plates to a final concentration of 7.5 μM. The plates were incubated for at least 1 h at 37° C. then read on a Viewlux Imager (PerkinElmer) using a luminescence program. The 50% effective concentration (EC50) was calculated using the four-parameter logistic formula noted above.

SMILES | EC50 [µM]
CCN(CC)c1cc2oc(-c3ccc(F)cc3)c(C(=O)NC)c2cc1-c1cccc(C(=O)N[C@H]2C(O)O[C@H](CO)[C@@H](O)[C@@H]2O)c1 (stereo partly shown) [Compound 1001] | 2.82
CCN(CC)c1cc2oc(-c3ccc(F)cc3)c(C(=O)NC)c2cc1-c1cccc(C(=O)NCCC2(O)CCCC2)c1 [Compound 1002] | < 0.1
CCN(CC)c1cc2oc(-c3ccc(F)cc3)c(C(=O)NC)c2cc1-c1cccc(C(=O)NC[C@H]2CCCC[C@H]2O)c1 [Compound 1003] | < 0.1
CCOC(=O)[C@@H]1CCCC[C@@H]1NC(=O)c1cccc(-c2cc3c(C(=O)NC)c(-c4ccc(F)cc4)oc3cc2N(CC)CC)c1 [Compound 1004] | < 0.1
CCN(CC)c1cc2oc(-c3ccc(F)cc3)c(C(=O)NC)c2cc1-c1cccc(C(=O)NC2CC(O)C2)c1 (stereo not shown) [Compound 1005] | < 0.1
CCN(CC)c1cc2oc(-c3ccc(F)cc3)c(C(=O)NC)c2cc1-c1cccc(C(=O)NC2CCC(O)C2)c1 (stereo not shown) [Compound 1006] | 0.0445
CCOC(=O)[C@H]1CCCC[C@@H]1NC(=O)c1cccc(-c2cc3c(C(=O)NC)c(-c4ccc(F)cc4)oc3cc2N(CC)CC)c1 [Compound 1007] | < 0.1
CCOC(=O)CC1(NC(=O)c2cccc(-c3cc4c(C(=O)NC)c(-c5ccc(F)cc5)oc4cc3N(CC)CC)c2)CCCCC1 [Compound 1008] | < 0.1
CCN(CC)c1cc2oc(-c3ccc(F)cc3)c(C(=O)NC)c2cc1-c1cccc(C(=O)N[C@H]2CC=CC[C@H]2CO)c1 [Compound 1009] | < 0.1
CCN(CC)c1cc2oc(-c3ccc(F)cc3)c(C(=O)NC)c2cc1-c1cccc(C(=O)NCc2ccccc2C(=O)OC)c1 [Compound 1010] | < 0.1
CCN(CC)c1cc2oc(-c3ccc(F)cc3)c(C(=O)NC)c2cc1-c1cccc(C(=O)NCC2(Cn3cccn3)CC2)c1 [Compound 1011] | 0.0261
CCN(CC)c1cc2oc(-c3ccc(F)cc3)c(C(=O)NC)c2cc1-c1cccc(C(=O)NCCCn2ccnc2)c1 [Compound 1012] | < 0.1
CCN(CC)c1cc2oc(-c3ccc(F)cc3)c(C(=O)NC)c2cc1-c1cccc(C(=O)NCCCn2cncn2)c1 [Compound 1013] | < 0.1
CCN(CC)c1cc2oc(-c3ccc(F)cc3)c(C(=O)NC)c2cc1-c1cccc(C(=O)NCCN2CCNC2=O)c1 [Compound 1014] | < 0.1
CCOP(=O)(CCCNC(=O)c1cccc(-c2cc3c(C(=O)NC)c(-c4ccc(F)cc4)oc3cc2N(CC)CC)c1)OCC [Compound 1015] | < 0.1
CCN(CC)c1cc2oc(-c3ccc(F)cc3)c(C(=O)NC)c2cc1-c1cccc(C(=O)NCCNS(=O)(=O)c2ccc(C)cc2)c1 [Compound 1016] | 0.0325
CCN(CC)c1cc2oc(-c3ccc(F)cc3)c(C(=O)NC)c2cc1-c1cccc(C(=O)NCC(=N)N)c1 [Compound 1017] | 0.1 to 1
CCN(CC)c1cc2oc(-c3ccc(F)cc3)c(C(=O)NC)c2cc1-c1cccc(C(=O)NCC2(c3ccccc3)CC2)c1 [Compound 1018] | 0.1 to 1
CCN(CC)c1cc2oc(-c3ccc(F)cc3)c(C(=O)NC)c2cc1-c1cccc(C(=O)NCC2(C#N)CC2)c1 [Compound 1019] | < 0.1
CCN(CC)c1cc2oc(-c3ccc(F)cc3)c(C(=O)NC)c2cc1-c1cccc(C(=O)NCC2(COC)CC2)c1 [Compound 1020] | < 0.1
CCN(CC)c1cc2oc(-c3ccc(F)cc3)c(C(=O)NC)c2cc1-c1cccc(C(=O)NCC2(COc3ccccc3)CC2)c1 [Compound 1021] | 0.172
CCN(CC)c1cc2oc(-c3ccc(F)cc3)c(C(=O)NC)c2cc1-c1cccc(C(=O)NCCCOc2ccccc2)c1 [Compound 1022] | < 0.1
CCN(CC)c1cc2oc(-c3ccc(F)cc3)c(C(=O)NC)c2cc1-c1cccc(C(=O)NCCOc2ccccc2)c1 [Compound 1023] | < 0.1
CC[C@H](COCc1ccccc1)NC(=O)c1cccc(-c2cc3c(C(=O)NC)c(-c4ccc(F)cc4)oc3cc2N(CC)CC)c1 [Compound 1024] | 0.1 to 1
CCN(CC)c1cc2oc(-c3ccc(F)cc3)c(C(=O)NC)c2cc1-c1cccc(C(=O)NCCOCc2ccccc2)c1 [Compound 1025] | < 0.1
CCN(CC)c1cc2oc(-c3ccc(F)cc3)c(C(=O)NC)c2cc1-c1cccc(C(=O)NC2CCNC2=O)c1 (stereo not shown) [Compound 1026] | 0.0111
CCN(CC)c1cc2oc(-c3ccc(F)cc3)c(C(=O)NC)c2cc1-c1cccc(C(=O)NC2CNC(=O)C2)c1 (stereo not shown) [Compound 1027] | < 0.1
CCN(CC)c1cc2oc(-c3ccc(F)cc3)c(C(=O)NC)c2cc1-c1cccc(C(=O)NC2CCOCC2)c1 [Compound 1028] | < 0.1

SMILES | EC50 [µM]
CCN(CC)c1cc2oc(-c3ccc(F)cc3)c(C(=O)NC)c2cc1-c1cccc(C(=O)NC2CCOC2)c1 (stereo not shown) [Compound 1029] | < 0.1
CCN(CC)c1cc2oc(-c3ccc(F)cc3)c(C(=O)NC)c2cc1-c1cccc(C(=O)N[C@@H]2C3CCC(C3)[C@@H]2CO)c1 (stereo partly shown) [Compound 1030] | < 0.1
CCN(CC)c1cc2oc(-c3ccc(F)cc3)c(C(=O)NC)c2cc1-c1cccc(C(=O)N[C@@]2(C)[C@@H](C(=O)OC)C[C@H]3C[C@@H]2C3(C)C)c1 [Compound 1031] | 0.116
CCN(CC)c1cc2oc(-c3ccc(F)cc3)c(C(=O)NC)c2cc1-c1cccc(C(=O)N[C@]2(C)[C@H](C(=O)OC)C[C@@H]3C[C@H]2C3(C)C)c1 [Compound 1032] | < 0.1
CCN(CC)c1cc2oc(-c3ccc(F)cc3)c(C(=O)NC)c2cc1-c1cccc(C(=O)NC(C)[C@@]23C[C@@H]4C[C@@H](C[C@@](O)(C4)C2)C3)c1 (stereo partly shown) [Compound 1033] | < 0.1
CCN(CC)c1cc2oc(-c3ccc(F)cc3)c(C(=O)NC)c2cc1-c1cccc(C(=O)N[C@@]23C[C@@H]4C[C@@H](C[C@@](O)(C4)C2)C3)c1 [Compound 1034] | < 0.1
CCN(CC)c1cc2oc(-c3ccc(F)cc3)c(C(=O)NC)c2cc1-c1cccc(C(=O)NC23CC4(C)CC(C)(CC(O)(C4)C2)C3)c1 [Compound 1035] | < 0.1
CCN(CC)c1cc2oc(-c3ccc(F)cc3)c(C(=O)NC)c2cc1-c1cccc(C(=O)NCC2(C)COC2)c1 [Compound 1036] | 0.0266
CCN(CC)c1cc2oc(-c3ccc(F)cc3)c(C(=O)NC)c2cc1-c1cccc(C(=O)NCC2(CO)COC2)c1 [Compound 1037] | < 0.1
CCN(CC)c1cc2oc(-c3ccc(F)cc3)c(C(=O)NC)c2cc1-c1cccc(C(=O)N[C@H]2C3CCC(C3)[C@H]2C(=O)O)c1 (stereo partly shown) [Compound 1038] | 0.1 to 1
CCN(CC)c1cc2oc(-c3ccc(F)cc3)c(C(=O)NC)c2cc1-c1cccc(C(=O)NCCCS(=O)(=O)O)c1 [Compound 1039] | > 1
CCN(CC)c1cc2oc(-c3ccc(F)cc3)c(C(=O)NC)c2cc1-c1cccc(C(=O)NCS(=O)(=O)O)c1 [Compound 1040] | > 1
CCN(CC)c1cc2oc(-c3ccc(F)cc3)c(C(=O)NC)c2cc1-c1cccc(C(=O)N[C@H]2CCC[C@H]2C(=O)O)c1 [Compound 1041] | 0.135
CCN(CC)c1cc2oc(-c3ccc(F)cc3)c(C(=O)NC)c2cc1-c1cccc(C(=O)N[C@H]2CCC[C@H]2C(=O)N[C@H]2CCC[C@H]2C(=O)O)c1 [Compound 1042] | 0.1 to 1
CCN(CC)c1cc2oc(-c3ccc(F)cc3)c(C(=O)NC)c2cc1-c1cccc(C(=O)N[C@H](CC(=O)O)CC(C)C)c1 [Compound 1043] | < 0.1
CCN(CC)c1cc2oc(-c3ccc(F)cc3)c(C(=O)NC)c2cc1-c1cccc(C(=O)N[C@H](CC(=O)N[C@H](CC(=O)O)CC(C)C)CC(C)C)c1 [Compound 1044] | 0.1 to 1
CCN(CC)c1cc2oc(-c3ccc(F)cc3)c(C(=O)NC)c2cc1-c1cccc(C(=O)N[C@@H]2CCCC[C@H]2C(=O)N[C@@H]2CCCC[C@H]2C(=O)O)c1 [Compound 1045] | > 1
CCN(CC)c1cc2oc(-c3ccc(F)cc3)c(C(=O)NC)c2cc1-c1cccc(C(=O)NC2(CC(=O)O)CCCC2)c1 [Compound 1046] | 0.0222
CCN(CC)c1cc2oc(-c3ccc(F)cc3)c(C(=O)NC)c2cc1-c1cccc(C(=O)N[C@H]2CCCC[C@H]2C(=O)O)c1 [Compound 1047] | < 0.1
CCN(CC)c1cc2oc(-c3ccc(F)cc3)c(C(=O)NC)c2cc1-c1cccc(C(=O)N[C@@H]2CCCC[C@@H]2C(=O)O)c1 [Compound 2001] | 0.1 to 1
CCN(CC)c1cc2oc(-c3ccc(F)cc3)c(C(=O)NC)c2cc1-c1cccc(C(=O)NC2(CC(=O)O)CCCCC2)c1 [Compound 2002] | < 0.1
CCOP(=O)(O)CCCNC(=O)c1cccc(-c2cc3c(C(=O)NC)c(-c4ccc(F)cc4)oc3cc2N(CC)CC)c1 [Compound 2003] | > 1
CNC(=O)c1c(-c2ccc(F)cc2)oc2cc([N+](=O)[O-])c(-c3cccc(C(=O)NC(CO)(CO)CO)c3)cc12 [Compound 3001] | 2.54
CNC(=O)c1c(-c2ccc(F)cc2)oc2cc([N+](=O)[O-])c(-c3cccc(C(=O)N(Cc4ccc(OC)cc4OC)C(CO)(CO)CO)c3)cc12 [Compound 3002] | > 1
CNC(=O)c1c(-c2ccc(F)cc2)oc2cc(N)c(-c3cccc(C(=O)NC(CO)(CO)CO)c3)cc12 [Compound 3003] | > 1
CCNc1cc2oc(-c3ccc(F)cc3)c(C(=O)NC)c2cc1-c1cccc(C(=O)NC(CO)(CO)CO)c1 [Compound 3004] | < 0.1
CCN(CC)c1cc2oc(-c3ccc(F)cc3)c(C(=O)NC)c2cc1-c1cccc(C(=O)NC(CO)(CO)CO)c1 [Compound 3005] | < 0.1
